In patent US12098119B2, “Compound used as SIRT6 small-molecule allosteric activator and pharmaceutical composition thereof” (Nutshell BioTech (Shanghai) Co., Ltd., priority 2017, dated 2024):

Columns and labels:
Type in all cases: cell-based
[1] = tested on: H3K9Ac and H3K56Ac in HCT116 cells; assay: Western blot of SIRT6 deacetylation substrates in HCT116 cells
From the text: (§1) A Western Blot experimental method is used to detect the effect of SIRT6 small molecule allosteric activator as active ingredients in Table 1 and Table 2 for SIRT6 deacetylated active substrates H3K9 AC and H3K56 AC in cell cells.
(§2) HEK-293 T cells, Bel7405 cells, PLC/PFR/5 cells, Bel 7402 cells, HCT116 cells, HT29 cells, SW 480 cells, and HCT116 cells are test objects.
(§3) Step 1: the compound mother liquor (solvent is DMSO) listed in Table 1 and Table 2, the gradient concentration comprising 0.5 μmol/L, 1 μmol/L, 5 μmol/L, 10 μmol/L, 25 μmol/L and 50 μmol/L;
(§4) Step 3: the cell state was good after 24 hours, the fresh culture solution (2 mL) was replaced, and the mother liquor configured above is added to the cell culture solution of the experimental group according to the ratio of 1:1000; the same volume of DMSO (2 ul) is added to the cell culture solution of the control group;
(§5) Step 4: continue to culture for a certain time (12 hours, 24 hours, 48 hours or 60 hours).
(§6) 1) for each group of cells at the end of culture, the culture medium in each well is discarded and washed with 1*PBS once;
(§7) 2) add 150 μl SDS lysate containing bromophenol blue into each well, mix well and transfer to 1.5 ml EP tube respectively;
(§8) 3) store at 95° C. for 5 min, then on ice for 5 min, repeat three times;
(§9) 4) the supernatant is centrifuged at 12000×g for 5 min for Western blot detection.

[2] = tested on: H3K9Ac and H3K56Ac in HT29 cells; assay: Western blot of SIRT6 deacetylation substrates in HT29 cells
From the text: as §1, §2, §3, §4, §5, §6, §7, §8, §9

[3] = tested on: H3K9Ac and H3K56Ac in SW480 cells; assay: Western blot of SIRT6 deacetylation substrates in SW480 cells
From the text: as §1, §2, §3, §4, §5, §6, §7, §8, §9

C[C@@H]1COCCN1C(C)(C)C [SOL-011]
H3K9Ac and H3K56Ac (Western blot) ([1]; CT116 cells, different concentrations, 48 hours, FIG. 45): down regulated H3K9Ac and h3k56ac
H3K9Ac and H3K56Ac (Western blot) ([1]; HCT116 cells, 10 μmol/L, 24 hours and 48 hours, FIG. 42): down regulated H3K9Ac and H3k56ac
H3K9Ac and H3K56Ac (Western blot) ([2]; 10 μmol/L, 24 hours and 48 hours, FIG. 43): down regulated H3K9Ac and H3k56ac
H3K9Ac and H3K56Ac (Western blot) ([2]; different concentrations, 48 hours, FIG. 46): down regulated H3K9Ac and H3k56ac
H3K9Ac and H3K56Ac (Western blot) ([3]; 10 μmol/L, 24 hours and 48 hours, FIG. 44): can down regulate H3K9Ac and H3k56ac
H3K9Ac and H3K56Ac (Western blot) ([3]; different concentrations, 48 hours, FIG. 47): down regulated H3K9Ac and H3k56ac
